Key:
[1] = target: T1, Tyrosinase (Agaricus bisporus) (UniProt O42713); assay: Inhibition of mushroom tyrosinase at 10.0 mM
T1 sequence (whole entry): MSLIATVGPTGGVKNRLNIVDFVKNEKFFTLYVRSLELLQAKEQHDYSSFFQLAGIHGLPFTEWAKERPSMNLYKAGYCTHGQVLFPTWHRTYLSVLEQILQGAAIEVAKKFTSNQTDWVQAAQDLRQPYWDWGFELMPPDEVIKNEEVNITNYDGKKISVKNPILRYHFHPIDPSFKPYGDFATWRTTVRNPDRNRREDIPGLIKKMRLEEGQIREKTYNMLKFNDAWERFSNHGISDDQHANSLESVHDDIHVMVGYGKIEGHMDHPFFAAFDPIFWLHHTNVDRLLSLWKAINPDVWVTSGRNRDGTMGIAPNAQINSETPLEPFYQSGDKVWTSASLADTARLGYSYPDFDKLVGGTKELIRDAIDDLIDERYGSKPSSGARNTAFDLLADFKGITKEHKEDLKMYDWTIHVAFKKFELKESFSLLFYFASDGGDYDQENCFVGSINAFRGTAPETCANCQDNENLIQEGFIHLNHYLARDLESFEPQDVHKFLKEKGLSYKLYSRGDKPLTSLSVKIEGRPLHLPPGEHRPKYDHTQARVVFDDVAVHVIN

[2] = target: T1, Tyrosinase (Agaricus bisporus); assay: Inhibition of mushroom tyrosinase at 3.00 mM
[3] = target: T1, Tyrosinase (Agaricus bisporus); assay: Inhibition of mushroom tyrosinase at 1.00 mM
[4] = target: T2, Tyrosinase (Agaricus bisporus, UniProt O42713); assay: Inhibition of mushroom tyrosinase
T2 sequence (O42713 whole entry): T1 sequence (whole entry)

[5] = target: T1, Tyrosinase (Agaricus bisporus); assay: Inhibition of mushroom tyrosinase at 0.10 mM

## O=C(/C=C/c1ccc(O)c(O)c1)O[C@H](Cc1ccc(O)c(O)c1)C(=O)O [ROSMARINIC ACID]
[1]
  inhibition: 93.6%
[2]
  inhibition: 69.8%
[3]
  inhibition: 40.7%
[4]
  IC50: 250 µM

## CCOc1cc(=O)c(C[C@@H](OC(=O)/C=C/c2ccc(O)c(O)c2)C(=O)O)coc1=O
[5]
  inhibition: 52.5%
[4]
  IC50: 80 µM

Source: ChEMBL document CHEMBL1287739, “A novel ring-expanded product with enhanced tyrosinase inhibitory activity from classical Fe-catalyzed oxidation of rosmarinic acid, a potent antioxidative Lamiaceae polyphenol” (Bioorg Med Chem Lett, 2010)
